The values below come from ChEMBL document CHEMBL5346907, “Discovery of a novel oral type Ⅰ CDK8 inhibitor against acute myeloid leukemia” (Eur J Med Chem, 2023).

Holding throughout (assay type): functional
One test deals with A549. The test is described as follows: Antiproliferative activity against human A549 cells incubated for 48 hrs by CCK8 assay. (Tetrazolium dyes change colour on reduction, which living cells bring about.)
A further test has as its system MOLM-13. Nature of the test: Antiproliferative activity against human MOLM-13 cells incubated for 48 hrs by CCK8 assay.
The test system of the next test is MGC-803. The test is described as follows: Antiproliferative activity against human MGC-803 cells incubated for 48 hrs by CCK8 assay.
The next test relates to A-375. The test is described as follows: Antiproliferative activity against human A-375 cells incubated for 48 hrs by CCK8 assay.
Another test concerns MDA-MB-231. The test is described as follows: Antiproliferative activity against human MDA-MB-231 cells incubated for 48 hrs by CCK8 assay.
The next test concerns GES1. The test is described as follows: Antiproliferative activity against human GES1 cells incubated for 48 hrs by CCK8 assay.
The next test concerns MV4-11. Nature of the test: Antiproliferative activity against human MV4-11 cells incubated for 48 hrs by CCK8 assay.

One may read the GI50 as the concentration at which growth is held to half of that of the control. Low readings indicate greater sensitivity of the cells, high ones lower sensitivity of the cells. In the case of `Cc1c(Br)c(Br)c2c3c1nc(N1CCNCC1)n3CCC2` [SEL-120 FREE BASE], the GI50 in the test with A549 worked out at 12.1 µM; in the test on MOLM-13, 0.02 µM; in the test on MGC-803 it was 16.3 µM; with A-375, 5.9 µM; in the test on MDA-MB-231, 9.6 µM; in the test on GES1, 55.3 µM. In the test with MV4-11, this compound yielded a concentration for 50% growth inhibition (GI50) of 0.07 µM.
